The source of these data is US4510143A, “Antiallergic pyrimido[1,2-a]quinoxalin-2-carboxylic acid derivatives” (Roussel Uclaf, priority 1982, dated 1985).

The structures appear in SMILES notation.

The subject of this assay is passive cutaneous reaction mediated by Ig G antibodies. Kind of assay: Passive cutaneous anaphylaxis in the rat (PCR), inhibition of Ig G PCR after oral administration. The format is in vivo. The following applies: male Wistar rats, 4 hour sensitization, 1 mg ovalbumen challenge. On the procedure: Passive cutaneous anaphylaxis in the rat (PCR)
Passive cutaneous anaphylaxis in the rat was carried out in male Wistar rats weighing 180-200 g which were sensitized by intradermal injection into four sites on shaved backs to produce a passive cutaneous reaction mediated by Ig G antibodies (a 4 hour sensitization following injection of antiserum heated at 56° C. for one hour). Antigen challenge was carried out in the same way with 1 mg of ovalbumen together with 0.5 ml of 1% Evans blue dye solution being injected intravenously and 30 minutes later, the animals were killed and the severity and area of each blue spot was scored when viewed from the reverse side of the skin.

Turning to `O=C(O)c1cnc2cnc3ccccc3n2c1=O` [Example 1, 1-oxo-1H-pyrimido[1,2-a]quinoxaline-2-carboxylic acid], the “% inhibition of Ig G PCR” value runs as follows: (1 mg/kg) 9.9%; (10 mg/kg) 50.3%.

Regarding `O=C(Nc1nn[nH]n1)c1cnc2c(=O)[nH]c3ccccc3n2c1=O` [Example 9], the “% inhibition of Ig G PCR” value (0.1 mg/kg) came to 19%, the “% inhibition of Ig G PCR” value (1 mg/kg) was 23% and the “% inhibition of Ig G PCR” value (10 mg/kg) is reported as 35%.

`O=C(Nc1nnn[nH]1)c1cnc2cnc3ccccc3n2c1=O` [Example 2, N-(5-Tetrazolyl)-1-oxo-1H-pyrimido[1,2-a]quinoxaline-2-carboxamide]: the “% inhibition of Ig G PCR” value is 29.9% (1 mg/kg) and 48.6% (10 mg/kg).

With `Cn1c(=O)c2ncc(C(=O)O)c(=O)n2c2ccccc21` [Example 10], the “% inhibition of Ig G PCR” value (1 mg/kg) was 15.6% and the “% inhibition of Ig G PCR” value (10 mg/kg) came to 20.5%.

Consider `O=C(O)c1cnc2c(=O)[nH]c3ccccc3n2c1=O` [Example 8, 1,5-dioxo-1,6-dihydropyrimido[1,2-a]quinoxalin-2-carboxylic acid], for which the “% inhibition of Ig G PCR” value runs as follows: (0.1 mg/kg) 40.5%; (1 mg/kg) 52.4%; (10 mg/kg) 94.1%.
